The values that follow come from patent US10544186B2, “Process for the synthesis of amide bonds with the aid of novel catalysts” (Merck Patent GmbH, priority 2016, dated 2020).

Data set [1] in a line: Solubility of the amide linking reagents in organic solvents. The class given is physicochemical. As to conditions: for solubility: organic solvent or mixture, thermodynamic from solid. The protocol:
All solubility determinations are carried out in a tared gas-tight 4 ml bottle with magnetic stirrer bar. The amide linking reagent (at least 5 mg) is weighed out and a certain amount of the solvent to be investigated is added. The mixture is stirred for 2-5 minutes. If undissolved solid is still present, solvent (50-100 μl) is additionally added, and the mixture is stirred again. As soon as a clear solution is present, the experiment is terminated.

Where a name gives a salt, the structure may show the parent alone. Read-outs that look alike come from different tables or passages of the source.

On to `[O-][n+]1nn(C(N2CCCC2)=[N+]2CCCC2)c2ccccc21` (as salt: phosphate) [BPyU-FAP, 1-(Pyrrolidino(pyrrolidinium-1-ylidene)methyl)-1H-benzo[d]-1,2,3-triazole 3-oxide tris(pentafluoroethyl)trifluorophosphate], for which the melting point was 173 °C (dec.).
Turning to `F[P-](F)(F)(F)(F)F.[O-][n+]1nn(C(N2CCCC2)=[N+]2CCCC2)c2ccccc21` [HBPyU, 1-(pyrrolidino(pyrrolidinium-1-ylidene)methyl)-1H-benzo-[d][1,2,3]triazole 3-oxide hexafluorophosphate, reference compound], the solubility in data set [1] (solvent 9CH2Cl2:1CH3CN, read-out: solubility in 9CH2Cl2:1CH3CN) was 118 mg/mL; in data set [1] (solvent CH2Cl2, read-out: solubility in CH2Cl2), 68.3 mg/mL; in data set [1] (solvent CH3CN, read-out: solubility in CH3CN), 510 mg/mL; in data set [1] (solvent DMF, read-out: solubility in DMF) it was 540 mg/mL; in data set [1] (solvent Hexane, read-out: solubility in Hexane), < 1.2 mg/mL; in data set [1] (solvent THF, read-out: solubility in THF), < 3.3 mg/mL. The solubility in data set [1] (solvent Toluene, read-out: solubility in Toluene) is < 1.2 mg/mL.
For `CN(C)C(Oc1c(F)c(F)c(F)c(F)c1F)=[N+](C)C.F[P-](F)(F)(F)(F)F` [PfTU, O-pentafluorophenyl-N,N,N′,N′-tetramethyluronium hexafluorophosphate, reference compound], in data set [1] (solvent 9CH2Cl2:1CH3CN), the “solubility in 9CH2Cl2:1CH3CN” value was determined as 2.5 mg/mL. In addition, the “solubility in CH2Cl2” value in data set [1] (solvent CH2Cl2) was <1.2 mg/mL. Besides, the “solubility in CH3CN” value in data set [1] (solvent CH3CN) turned out to be 1000 mg/mL. Further, the “solubility in DMF” value in data set [1] (solvent DMF) was 1000 mg/mL. Also, the “solubility in Hexane” value in data set [1] (solvent Hexane) is <1.2 mg/mL. In data set [1] (solvent THF), the “solubility in THF” value was <1.2 mg/mL. Moreover, the “solubility in Toluene” value in data set [1] (solvent Toluene) was <1.2 mg/mL.

In general, melting point refers to the temperature of the solid-liquid transition. Usually solubility stands for how much of the substance goes into solution per volume.
